Data from patent US8008285B2, “Droxidopa and pharmaceutical composition thereof for the treatment of fibromyalgia” (Chelsea Therapeutics, Inc., priority 2007, dated 2011).
“And” between values parts separate entries of the source, which are not always exact repeats. Identical values can stand only once.

Tests used:
MAO-A = molecular target: T1, MAO-A (Homo sapiens, UniProt P21397); conditions: cited from earlier work
T1 sequence (P21397 1-527): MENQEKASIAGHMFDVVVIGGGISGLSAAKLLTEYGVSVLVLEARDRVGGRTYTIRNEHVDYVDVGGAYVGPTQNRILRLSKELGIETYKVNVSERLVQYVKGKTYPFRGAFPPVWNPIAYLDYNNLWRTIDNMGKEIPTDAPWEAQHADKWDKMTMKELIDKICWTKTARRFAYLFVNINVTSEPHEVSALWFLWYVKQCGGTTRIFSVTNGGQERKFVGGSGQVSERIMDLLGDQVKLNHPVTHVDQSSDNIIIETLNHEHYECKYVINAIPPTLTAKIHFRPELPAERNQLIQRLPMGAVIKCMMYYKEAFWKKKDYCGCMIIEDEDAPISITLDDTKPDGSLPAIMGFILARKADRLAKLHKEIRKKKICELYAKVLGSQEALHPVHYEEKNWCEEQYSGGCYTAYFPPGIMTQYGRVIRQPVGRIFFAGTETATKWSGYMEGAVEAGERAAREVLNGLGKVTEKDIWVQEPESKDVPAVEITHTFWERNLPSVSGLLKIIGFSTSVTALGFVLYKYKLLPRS

[1] = system: Chronic Constriction Injury (CCI) model; assay: Chronic Constriction Injury (CCI) model, mechanical allodynia (electronic Von Frey); format: in vivo, rat; conditions: 60 minutes post dosing; for levels of allodynia compared with vehicle treated animals: ANOVA followed by t-test, significant at P<0.05; for levels of allodynia compared with vehicle treated animals / (3) Post-Treatment (tactile pressure threshold), Ave. / (3) − (2), Ave. / Inhibition (%) of allodynia, Ave. / (3) Post-Treatment (tactile pressure threshold) / (3) − (2) (Post-Treatment minus Pre-Treatment) / Inhibition (%) of allodynia: IP; for (3) Post-Treatment (tactile pressure threshold), Ave. / (3) − (2), Ave. / Inhibition (%) of allodynia, Ave.: group average of 10 animals; for (3) Post-Treatment (tactile pressure threshold), Ave. / (3) − (2), Ave. / Inhibition (%) of allodynia, Ave. / (3) Post-Treatment (tactile pressure threshold) / (3) − (2) (Post-Treatment minus Pre-Treatment) / Inhibition (%) of allodynia: 400 mg/kg droxidopa and 20 mg/kg carbidopa, or 18 mg/kg fluoxetine; for (3) Post-Treatment (tactile pressure threshold) / (3) − (2) (Post-Treatment minus Pre-Treatment) / Inhibition (%) of allodynia: individual animals, male Wistar rats
Experimental: Treatment of fibromyalgia through reducing sensitivity to chronic pain using droxidopa in combination with carbidopa was investigated using the Chronic Constriction Injury (CCI) model. […] Specifically, after anesthetization using pentobarbital (50 mg/kg, 5 ml/kg, i.p.), the sciatic nerve was exposed at mid-thigh level, and three ligatures (4-0 silk suture), about 1 mm apart, were loosely tied around the nerve. The animals were then housed individually in cages with soft bedding for seven days before testing for mechanical allodynia. […] The tip was gradually applied with sufficient force to cause slight buckling of the filament against the paw. […] Allodynia was calculated according to the following formula: % Inhibition=ΔTreatment/ΔBlank×100%. where Δ Treatment is the change in tactile pressure threshold over pre-treatment after ligation [(Post-Treatment)-(Pre-Treatment)], and Δ Blank is change in tactile pressure threshold over pre-ligation but before treatment [(Pre-Ligation)-(Pre-Treatment)]. A one-way ANOVA followed by t-test was applied for comparison between test substance treated groups and the vehicle control group. Activity was considered significant at P<0.05.

plasma norepinephrine = assay: Plasma norepinephrine concentration after dosing droxidopa combinations; format: in vivo, rat; conditions: 2 hours post-dosing, rats
Experimental: The pharmacokinetic properties of droxidopa combinations useful in the methods of the invention were evaluated in male Sprague Dawley rats.
Administration of droxidopa combinations was seen to affect plasma norepinephrine concentration in comparison to administration of droxidopa alone. Formulation 0 indicates administration of the vehicle alone without droxidopa or a droxidopa combination of the invention and provides a baseline comparative of plasma norepinephrine levels in an untreated subject.

Row | SMILES | selectivity for MAO-A than MAO-B (MAO-A) | levels of allodynia compared with vehicle treated animals [1] | (3) Post-Treatment (tactile pressure threshold), Ave. [1] | (3) − (2), Ave. [1] | Inhibition (%) of allodynia, Ave. [1] | Inhibition (%) of allodynia, Ave. ([1]; listed as fluoxetine) | (3) Post-Treatment (tactile pressure threshold) [1] | (3) − (2) (Post-Treatment minus Pre-Treatment) [1] | Inhibition (%) of allodynia [1] | Inhibition (%) of allodynia ([1]; listed as fluoxetine) | increases in allodynia ([1]; individual fluoxetine-treated subjects, 18 mg/kg IP) | increase in plasma norepinephrine concentration (fold over vehicle alone) (plasma norepinephrine)
1 | O=C(NCCN1CCOCC1)c1ccc(Cl)cc1 [moclobemide] | approximately three |  |  |  |  |  |  |  |  |  |  | 
2 | CNCCC(Oc1ccc(C(F)(F)F)cc1)c1ccccc1 (stereo not shown) [Fluoxetine, fluoxetine] |  | not significantly different from vehicle-treated rats | 9.2 | 0.4 | 0.7% | less than 1% | 14.4 and 12.4 and 11.2 and 9.7 and 7 and 10.4 and 6.5 and 8.8 and 6 and 5.9 | 5.3 and 1.2 and 3 (2×) and 0.6 (2×) and 1.6 and −5.5 and −2.7 and −3.6 | 25.0% and 5.9% and 17.3% and 3.8% (2×) and 6.1% and 12.2% and −40.1% and −12.1% and −14.6% | 25% | ≤ 40.1% | 
3 | NC(C(=O)O)C(O)c1ccc(O)c(O)c1 (stereo not drawn) [Droxidopa, threo-3-(3,4-dihydroxyphenyl)serine] |  | significantly decreased levels of allodynia | 21.7 | 13.2 | 65.7% |  | 26.3 and 32.1 and 23.4 and 26.2 and 22.9 and 11.4 and 20.1 and 12.6 and 22.3 and 19.7 | 16.2 and 24.4 and 16.7 and 14.4 and 16.3 and 2.8 and 13.8 and 6 and 10.9 (2×) | total allodynia inhibition in several test subjects and 104.5% and 115.6% and 66.3% and 75.8% and 74.4% and 11.5% and 72.6% and 26.1% and 62.3% and 48.0% |  |  | ~5 fold
